Here are results for 3 compounds from EP0735879B1, “USE OF AMINO CYCLODEXTRINS FOR THE AQUEOUS SOLUBILISATION OF DIBENZAZEPINES FOR USE AS AN ANTIEPILEPTIC AGENT” (COMMISSARIAT A L'ENERGIE ATOMIQUE, priority 1993, dated 1995).

Converted amounts (≈) assume the structure as drawn. “And” between values parts separate entries of the source, which are not always exact repeats. Identical values can stand only once.

Data set [1] can be described thus: physchem. It counts as physicochemical. Conditions: 25°C, read-out: solubilité de la carbamazépine. As for the experimental part:
Dans cet exemple on évalue la solubilisation de la carbamazépine par différents dérivés de cyclodextrines dans des conditions standardisées. Les mesures de solubilité sont réalisées à 25°C en présence de la cyclodextrine considérée à la concentration de 25 mmol/l, le pH de la solution étant ajusté dans tous les cas à 7,4 pour simuler autant que posible les conditions physiologiques.

For data set [2] the following is noted: 25°C; cited from earlier work.
The nature of data set [3]: in vitro. Conditions: human, erythrocytes, pH 7.
Description: Les propriétés hémolytiques du chlorhydrate ont été testées en mettant en contact 0,4 ml d'une suspension d'érythrocytes humains avec 4 ml de la solution du chlorhydrate dans 10 mmol d'un tampon phosphate isotonique à un pH de 7,4, pendant 30 minutes à 37°C.
Data set [4] in a line: Solubility in water of the cyclodextrin. As to conditions: 20°C, read-out: solubilité dans l'eau. Type of data set: physicochemical.
A short description of data set [5]: pH of an aqueous solution of the hydrochloride. As to conditions: solution à 1 % en poids du chlorhydrate dans de l'eau. It counts as physicochemical.
Data set [6] concerns rat Sprague-Dawley mâle et femelle. The experiment in a line: Acute toxicity, intravenous injection. It counts as in vivo. As to conditions: voie intraveineuse, chlorhydrate, 2g/kg de poids corporel.
Data set [7] concerns Escherichia Coli. The experiment in a line: Ames test, mutagenicity. It counts as cell-based. Conditions: test de AMES, souches d'Escherichia Coli. For orientation: The Ames test uses bacterial strains that need an amino acid and regain growth without it when mutated back.
In data set [8] the test system is Salmonella typhimurium. The experiment in a line: Ames test, mutagenicity. Type of data set: cell-based. As to conditions: test de AMES, souches de Salmonella typhimurium.

For the compound `NC(=O)N1c2ccccc2C=Cc2ccccc21` [Carbamazépine, carbamazépine], the solubility in data set [1] (phosphate buffer, pH 7.4, aqueous buffer, Tampon Phosphate 7,4, without cyclodextrin) is < 70 µM; in data set [1] (pure water, water, Eau pure, without cyclodextrin) it was < 50 µM. Also, the “solubilité dans l'eau pure” value in data set [2] is 12 µg/mL.

The HC50 is the concentration giving 50% haemolysis. A higher HC50 goes with weaker haemolysis. Consider `OC[C@H]1O[C@@H]2O[C@H]3[C@H](O)[C@@H](O)[C@@H](O[C@H]4[C@H](O)[C@@H](O)[C@@H](O[C@H]5[C@H](O)[C@@H](O)[C@@H](O[C@H]6[C@H](O)[C@@H](O)[C@@H](O[C@H]7[C@H](O)[C@@H](O)[C@@H](O[C@H]8[C@H](O)[C@@H](O)[C@@H](O[C@H]1[C@H](O)[C@H]2O)O[C@@H]8CO)O[C@@H]7CO)O[C@@H]6CO)O[C@@H]5CO)O[C@@H]4CO)O[C@@H]3CO` [β-CD, β-cyclodextrine, reference compound], for which, in data set [3], the 50% haemolytic concentration (HC50) at 0.5 h is 5 mM and ~6000 µg/mL.

Take `NC[C@H]1O[C@@H]2O[C@H]3[C@H](O)[C@@H](O)[C@@H](O[C@H]4[C@H](O)[C@@H](O)[C@@H](O[C@H]5[C@H](O)[C@@H](O)[C@@H](O[C@H]6[C@H](O)[C@@H](O)[C@@H](O[C@H]7[C@H](O)[C@@H](O)[C@@H](O[C@H]8[C@H](O)[C@@H](O)[C@@H](O[C@H]1[C@H](O)[C@H]2O)O[C@@H]8CO)O[C@@H]7CO)O[C@@H]6CO)O[C@@H]5CO)O[C@@H]4CO)O[C@@H]3CO` [β-CD-NH2, mono-6-amino-β-cyclodextrine]: in data set [4], the solubility was 200 mg/mL (≈ 176 mM). In data set [5], the pH is 6,8. In data set [6], the mortalité result is given as “aucune mortalité”. Further, the “activité mutagène” value in data set [7] and in data set [8] was “aucune activité mutagène” each time. The 50% haemolytic concentration (HC50) at 0.5 h in data set [3] was ~30 mM and ~35000 µg/mL.
